Results as given in publication PMC10215302 (Antibiotics, 2023).
Converted amounts (≈) assume the structure as drawn. Where two headings read alike, the source gives them in different places.

What was measured:
S. aureus RN4220 = settings: for change of MICs on deletion of SACOL1927 (yfhP): S. aureus mutant strain RN4220, allele replacement; for MIC: Table S4: RN4220
S. aureus SA0077 = settings: for MIC values: Table S1: SA0077 Abf (passages on antibiotic-free media)
[1] = test system: S. aureus (VISA/hVISA isolates; MprF P314L strains); settings: MprF AAS P314L, cited from earlier work
[2] = test system: S. aureus derivative strains
S. aureus SA0085 = settings: for MIC values: Table S1: SA0085 Abf (passages on antibiotic-free media)
[3] = test system: S. aureus derivative strains; type: cell-based, Staphylococcus aureus; settings: AUC of tested strain / AUC of S. aureus Mu50
[4] = ATCC 29213, selecting agent DAP, passage 5
[5] = ATCC 29213, selecting agent DAP, passage 20
[6] = ATCC 29213, selecting agent DAP, passage 40
[7] = ATCC 29213, selecting agent VAN, passage 0
[8] = ATCC 29213, selecting agent VAN, passage 5
[9] = ATCC 29213, selecting agent VAN, passage 20
[10] = ATCC 29213, selecting agent VAN, passage 40
[11] = Table S4: ATCC 29213, strain before selection
[12] = Table S1: RN4220 ∆ (strain with deletion in SACOL1927)
[13] = SA0077, selecting agent DAP, passage 5
[14] = SA0077, selecting agent DAP, passage 20
[15] = SA0077, selecting agent DAP, passage 40
[16] = SA0077, selecting agent VAN, passage 0
[17] = SA0077, selecting agent VAN, passage 5
[18] = SA0077, selecting agent VAN, passage 20
[19] = SA0077, selecting agent VAN, passage 40
[20] = Table S4: SA0077, strain before selection
[21] = SA0422, selecting agent DAP, passage 5
[22] = SA0422, selecting agent DAP, passage 20
[23] = SA0422, selecting agent DAP, passage 40
[24] = SA0422, selecting agent VAN, passage 0
[25] = SA0422, selecting agent VAN, passage 5
[26] = SA0422, selecting agent VAN, passage 20
[27] = SA0422, selecting agent VAN, passage 40
[28] = Table S4: SA0422, strain before selection
[29] = SA0736, selecting agent DAP, passage 5
[30] = SA0736, selecting agent DAP, passage 20
[31] = SA0736, selecting agent DAP, passage 40Y (yellow colonies)
[32] = SA0736, selecting agent VAN, passage 0
[33] = SA0736, selecting agent VAN, passage 20
[34] = SA0736, selecting agent VAN, passage 40
[35] = Table S1: SA0736 DAP-W (40 passages on daptomycin, white colonies)
[36] = Table S1: SA0736 DAP-Y (40 passages on daptomycin, yellow colonies)
[37] = Table S4: SA0736, strain before selection
[38] = SA0085, selecting agent DAP, passage 5
[39] = SA0085, selecting agent DAP, passage 20
[40] = SA0085, selecting agent DAP, passage 40
[41] = SA0085, selecting agent VAN, passage 0
[42] = SA0085, selecting agent VAN, passage 5
[43] = SA0085, selecting agent VAN, passage 20
[44] = SA0085, selecting agent VAN, passage 40
[45] = Table S4: SA0085, strain before selection

## CCCCCCCCCC(=O)N[C@@H](Cc1c[nH]c2ccccc12)C(=O)N[C@H](CC(N)=O)C(=O)N[C@@H](CC(=O)O)C(=O)N[C@@H]1C(=O)NCC(=O)N[C@@H](CCCN)C(=O)N[C@@H](CC(=O)O)C(=O)N[C@H](C)C(=O)N[C@@H](CC(=O)O)C(=O)NCC(=O)N[C@H](CO)C(=O)N[C@@H]([C@H](C)CC(=O)O)C(=O)N[C@@H](CC(=O)c2ccccc2N)C(=O)O[C@@H]1C [DAP, daptomycin]
S. aureus ATCC 29213; [4]
  MIC: 0.5 µg/mL (≈ 0.309 µM)
S. aureus ATCC 29213; [5]
  MIC: 32 µg/mL (≈ 19.7 µM)
S. aureus ATCC 29213; [6]
  MIC: 64 µg/mL (≈ 39.5 µM)
S. aureus ATCC 29213; [7]
  MIC: 0.125 µg/mL (≈ 0.0771 µM)
S. aureus ATCC 29213; [8]
  MIC: 0.25 µg/mL (≈ 0.154 µM)
S. aureus ATCC 29213; [9]
  MIC: 2 µg/mL (≈ 1.23 µM)
S. aureus ATCC 29213; [10]
  MIC: 2 µg/mL (≈ 1.23 µM)
S. aureus ATCC 29213; [11]
  MIC: 0.125 µg/mL (≈ 0.0771 µM)
S. aureus RN4220
  change of MICs on deletion of SACOL1927 (yfhP): did not change
  MIC: 0.25 µg/mL (≈ 0.154 µM)
S. aureus RN4220; Table S1: RN4220 WT
  MIC values: 0.25 µg/mL (≈ 0.154 µM)
S. aureus RN4220; [12]
  MIC values: 0.25 µg/mL (≈ 0.154 µM)
S. aureus SA0077; [13]
  MIC: 0.5 µg/mL (≈ 0.309 µM)
S. aureus SA0077; [14]
  MIC: 8 µg/mL (≈ 4.94 µM)
S. aureus SA0077; [15]
  MIC: 32 µg/mL (≈ 19.7 µM)
S. aureus SA0077; [16]
  MIC: 0.25 µg/mL (≈ 0.154 µM)
S. aureus SA0077; [17]
  MIC: 2 µg/mL (≈ 1.23 µM)
S. aureus SA0077; [18]
  MIC: 2 µg/mL (≈ 1.23 µM)
S. aureus SA0077; [19]
  MIC: 2 µg/mL (≈ 1.23 µM)
S. aureus SA0077
  MIC values: 0.25 µg/mL (≈ 0.154 µM)
S. aureus SA0077; [20]
  MIC: 0.25 µg/mL (≈ 0.154 µM)
[1]; moderate increase
  MIC: 2 µg/mL (≈ 1.23 µM)
[1]
  effect on MIC: no effect
[2]; all strains, 20th passage of daptomycin selection
  MIC range by the 20th passage: 8 to 32 µg/mL
[2]; daptomycin-selected derivatives, after the 20th passage
  MIC correlated with mprF mutations: up to 32 mg/L
[2]; selection with vancomycin, derivatives of all strains
  MICs in derivatives of all strains after selection with vancomycin: 2 µg/mL
S. aureus SA0422; [21]
  MIC: 8 µg/mL (≈ 4.94 µM)
S. aureus SA0422; [22]
  MIC: 16 µg/mL (≈ 9.87 µM)
S. aureus SA0422; [23]
  MIC: >64 µg/mL
S. aureus SA0422; [24]
  MIC: 0.25 µg/mL (≈ 0.154 µM)
S. aureus SA0422; [25]
  MIC: 1 µg/mL (≈ 0.617 µM)
S. aureus SA0422; [26]
  MIC: 1 µg/mL (≈ 0.617 µM)
S. aureus SA0422; [27]
  MIC: 2 µg/mL (≈ 1.23 µM)
S. aureus SA0422; [28]
  MIC: 0.25 µg/mL (≈ 0.154 µM)
S. aureus SA0736; [29]
  MIC: 1 µg/mL (≈ 0.617 µM)
S. aureus SA0736; [30]
  MIC: 32 µg/mL (≈ 19.7 µM)
S. aureus SA0736; [31]
  MIC: >64 µg/mL
S. aureus SA0736; [32]
  MIC: 0.25 µg/mL (≈ 0.154 µM)
S. aureus SA0736; SA0736, selecting agent VAN, passage 5
  MIC: 0.5 µg/mL (≈ 0.309 µM)
S. aureus SA0736; [33]
  MIC: 0.5 µg/mL (≈ 0.309 µM)
S. aureus SA0736; [34]
  MIC: 2 µg/mL (≈ 1.23 µM)
S. aureus SA0736; [35]
  MIC values: > 64 µg/mL
S. aureus SA0736; [36]
  MIC values: > 64 µg/mL
S. aureus SA0736; [37]
  MIC: 0.25 µg/mL (≈ 0.154 µM)
S. aureus SA0085; [38]
  MIC: 0.5 µg/mL (≈ 0.309 µM)
S. aureus SA0085; [39]
  MIC: 32 µg/mL (≈ 19.7 µM)
S. aureus SA0085; [40]
  MIC: >64 µg/mL
S. aureus SA0085; [41]
  MIC: 0.5 µg/mL (≈ 0.309 µM)
S. aureus SA0085; [42]
  MIC: 1 µg/mL (≈ 0.617 µM)
S. aureus SA0085; [43]
  MIC: 2 µg/mL (≈ 1.23 µM)
S. aureus SA0085; [44]
  MIC: 2 µg/mL (≈ 1.23 µM)
S. aureus SA0085
  MIC values: 0.5 µg/mL (≈ 0.309 µM)
S. aureus SA0085; [45]
  MIC: 0.5 µg/mL (≈ 0.309 µM)

## vancomycin
S. aureus ATCC 29213; [4]
  MIC: 1 µg/mL
S. aureus ATCC 29213; [5]
  MIC: 2 µg/mL
S. aureus ATCC 29213; [6]
  MIC: 4 µg/mL
S. aureus ATCC 29213; [7]
  MIC: 0.25 µg/mL
S. aureus ATCC 29213; [8]
  MIC: 0.25 µg/mL
S. aureus ATCC 29213; [9]
  MIC: 2 µg/mL
S. aureus ATCC 29213; [10]
  MIC: 8 µg/mL
S. aureus ATCC 29213; [11]
  MIC: 0.25 µg/mL
S. aureus RN4220
  change of MICs on deletion of SACOL1927 (yfhP): did not change
  MIC: 0.5 µg/mL
S. aureus RN4220; Table S1: RN4220 WT
  MIC values: 0.5 µg/mL
S. aureus RN4220; [12]
  MIC values: 0.5 µg/mL
[3]; after 40 passages in vancomycin
  PAP AUC ratio: 1.0–1.2
[3]; after daptomycin selection
  PAP AUC ratio: 0.4–1.0
S. aureus SA0077; [13]
  MIC: 2 µg/mL
S. aureus SA0077; [14]
  MIC: 4 µg/mL
S. aureus SA0077; [15]
  MIC: 4 µg/mL
S. aureus SA0077; [16]
  MIC: 1 µg/mL
S. aureus SA0077; [17]
  MIC: 4 µg/mL
S. aureus SA0077; [18]
  MIC: 8 µg/mL
S. aureus SA0077; [19]
  MIC: 8 µg/mL
S. aureus SA0077
  MIC values: 1 µg/mL
S. aureus SA0077; [20]
  MIC: 1 µg/mL
[2]; derivative strains, end of vancomycin selection
  MICs of derivative strains at the end of selection with vancomycin: 4 to 8 µg/mL
[2]; vancomycin-selected derivatives, stability test
  change of MICs after 10 passages in antibiotic-free media: decreased by one dilution
S. aureus SA0422; [21]
  MIC: 1 µg/mL
S. aureus SA0422; [22]
  MIC: 2 µg/mL
S. aureus SA0422; [23]
  MIC: 2 µg/mL
S. aureus SA0422; [24]
  MIC: 1 µg/mL
S. aureus SA0422; [25]
  MIC: 2 µg/mL
S. aureus SA0422; [26]
  MIC: 4 µg/mL
S. aureus SA0422; [27]
  MIC: 4 µg/mL
S. aureus SA0422; [28]
  MIC: 1 µg/mL
S. aureus SA0736; [29]
  MIC: 0.5 µg/mL
S. aureus SA0736; [30]
  MIC: 4 µg/mL
S. aureus SA0736; SA0736, selecting agent DAP, passage 40W (white colonies)
  MIC: 4 µg/mL
S. aureus SA0736; [31]
  MIC: 4 µg/mL
S. aureus SA0736; [32]
  MIC: 0.5 µg/mL
S. aureus SA0736; [33]
  MIC: 8 µg/mL
S. aureus SA0736; [34]
  MIC: 8 µg/mL
S. aureus SA0736; [35]
  MIC values: 4 µg/mL
S. aureus SA0736; [36]
  MIC values: 4 µg/mL
S. aureus SA0736; [37]
  MIC: 0.5 µg/mL
S. aureus SA0085; [38]
  MIC: 1 µg/mL
S. aureus SA0085; [39]
  MIC: 2 µg/mL
S. aureus SA0085; [40]
  MIC: 4 µg/mL
S. aureus SA0085; [41]
  MIC: 1 µg/mL
S. aureus SA0085; [42]
  MIC: 4 µg/mL
S. aureus SA0085; [43]
  MIC: 4 µg/mL
S. aureus SA0085; [44]
  MIC: 8 µg/mL
S. aureus SA0085
  MIC values: 1 µg/mL
S. aureus SA0085; [45]
  MIC: 1 µg/mL
